US11465987B2, “Compounds for treatment of cancer” (ONCTERNAL THERAPEUTICS, INC., priority 2012, dated 2022)
Read-outs that look alike come from different tables or passages of the source.

Legend:
[1] = test system: PC-3 human prostate cancer cell line; assay: cells; conditions: Homo sapiens
Source text: (§1) Cells were stained with SRB solution.

[2] = test system: LNCaP human prostate cancer cell line; assay: Cytotoxicity (SRB) assay, LNCaP; type: cell-based; conditions: Homo sapiens, LNCaP
Source text: as §1

[3] = test system: PPC-1 human prostate cancer cell line; assay: Cytotoxicity (SRB) assay, PPC-1; type: cell-based; conditions: Homo sapiens
Source text: as §1

[4] = test system: melanoma and prostate cancer cell lines; assay: Antiproliferative activity summarised over the cell line panel (range or average); type: cell-based; conditions: read-out: IC50 range against prostate cancer cells, range over prostate cancer cell lines
[5] = test system: tubulin (colchicine, vinblastine and paclitaxel binding sites); assay: MS competition binding assay; conditions: competitive mass binding assay
Source text: Each reaction was run in triplicate.

[6] = test system: PC-3_TxR xenograft; assay: In vivo PC-3/TxR xenograft; conditions: PC-3/TxR mice; 17ya […], 55 30 mg/kg
[7] = test system: CYP enzymes; assay: CYP enzyme inhibition assays
[8] = Pharmacokinetic study in ICR mice; conditions: Mouse PK
[9] = Permeability (drug-like properties)
[10] = Pharmacokinetic study in beagle dogs; conditions: Dog PK, PO 5 mg/kg
[11] = test system: confluent HUVEC monolayers; assay: Endothelial monolayer permeability assay; conditions: FITC-dextran leakage, 1, 2, 4 h
[12] = Pharmacokinetic study in Sprague-Dawley rats; conditions: Rat PK, PO 10 mg/kg
[13] = test system: B16-F1 mouse melanoma cell line; assay: Cytotoxicity (SRB) assay, B16-F1; type: cell-based; conditions: Mus musculus
[14] = test system: A375 human melanoma cell line; assay: Cytotoxicity (SRB) assay, A375; type: cell-based; conditions: Homo sapiens
[15] = test system: WM-164 human melanoma cell line; assay: Cytotoxicity (SRB) assay, WM-164; type: cell-based; conditions: Homo sapiens, n = 3, read-out: IC50 ± SEM, WM-164
[16] = test system: DU 145 human prostate cancer cell line; assay: Cytotoxicity (SRB) assay, DU 145; type: cell-based; conditions: Homo sapiens
Source text: as §1

[17] = test system: OVCAR-8 human ovarian cell line; assay: Cytotoxicity (SRB) assay, OVCAR-8; type: cell-based; conditions: Table 14B, parental cell line, read-out: IC50 ± SEM, OVCAR-8
[18] = test system: MES-SA cells; assay: Growth inhibition (SRB) assay, MES-SA; type: cell-based; conditions: Homo sapiens
[19] = test system: MES-SA/DX5 cells; assay: Growth inhibition (SRB) assay, MES-SA/Dx5; type: cell-based; conditions: Homo sapiens, MES-SA/Dx5
[20] = test system: MDA-MB-435 parental nonresistant melanoma cells; assay: Cytotoxicity (SRB) assay, MDA-MB-435; type: cell-based; conditions: Homo sapiens
[21] = test system: MDA-MB-435/LCCMDR1 multidrug-resistant melanoma cells; assay: Cytotoxicity (SRB) assay, MDA-MB-435/LCCMDR1; type: cell-based
[22] = Rotarod test (in vivo neurotoxicity); design: species or system mouse; conditions: ICR mice, i.p. daily; 1h 5 or 15 mg/kg, vinblastine 0.5 mg/kg
Experimental: ICR mice received training three times a day for two days to enable them to stay on the rotating rod for >120 seconds at 12 rpm. Mice were then randomized by the length of time that they could stay on the rotating rod and divided into 7-8 mice per group. […] The rotarod test was performed twice a week. […] The rod speed was increased from […] to 40 rpm over a period of 5 min. Performance was measured as the length of time that a mouse could stay on the rotating rod.

[23] = test system: A375MA2 melanoma cell line; assay: Cytotoxicity assay, A375MA2; type: cell-based; conditions: Table 14B, n = 3; read-out: IC50 ± SEM, A375MA2
[24] = test system: HEK293-pcDNA3.1 cells; assay: Cytotoxicity assay, HEK293-pcDNA3.1 (parental line of the MRP/BCRP sublines); type: cell-based; conditions: Table 14B; parental cell line; read-out: IC50 ± SEM, HEK293-pcDNA3.1
[25] = test system: PC-3 xenograft; assay: In vivo PC-3 prostate tumor xenograft; conditions: PC-3, 0.5 mg/kg q2d, day 22
[26] = test system: BCRP resistant cell line; assay: Cytotoxicity in BCRP-mediated resistant cell line; conditions: read-out: IC50 ± SEM, HEK293-482R2
[27] = read-out: IC50 PC-3, SRB assay, prostate cancer PC-3
[28] = SRB assay, prostate cancer LNCaP, read-out: IC50 LNCaP
[29] = PPC-1, SRB assay, prostate cancer PPC-1, read-out: IC50 PPC-1

COc1cc(C(=O)c2csc(Nc3ccc4[nH]ccc4c3)n2)cc(OC)c1OC [compound 55, (2-(1H-INDOL-5-YLAMINO)THIAZOL-4-YL)(3,4,5-TRIMETHOXYPHENYL)METHANONE]
IC50 ([1]; 96 h, read-out: Cytotoxicity IC50, PC-3, Table 15, mean ± SD, 96 h treatment, N = 3): 16 ± 1.5 nM | IC50 [1, 27]: 12 ± 1 nM | IC50 ([1]; read-out: IC50 in PC3, Table 16B): 28 nM | IC50 [2, 28]: 13 ± 1 nM | IC50 [3, 29]: 15 ± 1 nM | IC50 [4]: 7.5 to 24.1 nM | competition for tubulin binding sites in words [5]: competed effectively with colchicine | body weight in words [6]: gaining weight | CYP enzyme inhibition in words [7]: high IC50 values in micromolar range | t1/2 ([8]; IV 10 mg/kg): 0.767 h | F ([8]; PO 20 mg/kg): 34% | t1/2 ([8]; PO 20 mg/kg): 2.1 h | permeability in words [9]: more than adequate permeability values | F [10]: 36% | permeability of endothelial cell monolayer in words [11]: increased permeability | F [12]: 24% | t1/2 [12]: 5.83 ± 3.57 h

CC[C@]1(O)C[C@@H]2CN(CCc3c([nH]c4ccccc34)[C@@](C(=O)OC)(c3cc4c(cc3OC)N(C)[C@H]3[C@@](O)(C(=O)OC)[C@H](OC(C)=O)[C@]5(CC)C=CCN6CC[C@]43[C@@H]65)C2)C1 [vinblastine, Vinblastine, reference compound]
IC50 ([13]; B16-F1, SRB assay, mouse melanoma B16-F1, read-out: IC50 B16-F1): 4.7 nM | IC50 ([13]; B16-F1, Table 14A, n = 3, read-out: IC50 ± SEM, B16-F1 (converted)): 4.7 ± 0.7 nM | IC50 ([13]; B16-F1, Table 14B, n = 3, read-out: IC50 ± SEM, B16-F1 (converted)): 5 ± 1 nM | IC50 ([13]; B16-F1, Table 21, n = 3, read-out: IC50 ± SEM, B16-F1 (converted)): 4.7 ± 0.7 nM | IC50 ([14]; A-375, SRB assay, human melanoma A375, read-out: IC50 A375): 1 nM | IC50 ([14]; A-375, Table 14A, n = 3, read-out: IC50 ± SEM, A375 (converted)): […] | IC50 ([14]; A-375, Table 14B, n = 3, read-out: IC50 ± SEM, A375 (converted)): 1 ± 0.1 nM | IC50 ([14]; A-375, Table 21, n = 3, read-out: IC50 ± SEM, A375 (converted)): […] | IC50 ([15]; WM164, Table 14A): 0.6 ± 0.1 nM | IC50 ([15]; WM164, Table 14B): 0.6 ± 0.1 nM | IC50 ([16]; DU-145, SRB assay, prostate cancer DU 145, read-out: IC50 DU 145): 1.8 nM | IC50 ([16]; DU-145, Table 7, read-out: IC50, DU-145): 2.6 ± 1 nM | IC50 ([16]; DU-145, Table 21, n = 3, read-out: IC50 ± SEM, Du-145): 1.8 ± 1.1 nM | IC50 ([1]; read-out: IC50, PC-3, Table 7): 1.4 ± 0.3 nM | IC50 [1, 27]: 2.1 nM | IC50 ([1]; read-out: IC50 ± SEM, PC-3, Table 21, n = 3): 2.1 ± 0.2 nM | IC50 [2, 28]: […] | IC50 ([2]; Table 7, read-out: IC50, LNCaP): 3.4 ± 0.9 nM | IC50 ([2]; Table 21, n = 3, read-out: IC50 ± SEM, LNCaP (converted)): […] | IC50 [3, 29]: […] | IC50 ([3]; PPC-1, Table 7, read-out: IC50, PPC-1): […] | IC50 [17]: 2 ± 0.1 nM | IC50 ([18]; SRB assay): 1.4 nM | IC50 ([18]; Table 7, parental line): 2.3 ± 0.8 nM | IC50 ([19]; SRB assay): 16 nM | IC50 ([19]; Table 7, P-gp over-expressed): 45.7 ± 5.3 nM | IC50 ([20]; Table 14A, sensitive parent cell line, read-out: IC50 ± SEM, MDA-MB-435 (converted)): 0.4 ± 0.1 nM | IC50 ([20]; read-out: IC50 nonresistant melanoma cell line): 0.5 to 10 nM | IC50 ([21]; Homo sapiens, MDA-MB-435/LCCMDR1, read-out: IC50 MDR melanoma cell line): 277 to 658 nM | P-gp substrate / multidrug resistance in words ([21]; MDR melanoma line vs sensitive parent line): substrates for P-glycoprotein (P-gp) | competition for tubulin binding sites in words [5]: did not inhibit the colchicine-tubulin binding | rotarod performance in words [22]: gradually reduced the time | IC50 [23]: 1 ± 0.2 nM | IC50 [24]: 5 ± 0.1 nM | % T/C [25]: 29% | IC50 [26]: 25 ± 1 nM
